Tests used:
[1] = system: HEK-293; assay: MTT cytotoxicity on normal cells; format: cell-based, human; conditions: 25 µM (highest tested concentration), 24 h, serum-free medium
Procedure: (§1) The used mammalian cell lines in our study were colorectal adenocarcinoma (Caco2, ATCC-HTB-37), colorectal carcinoma (HCT 116, ATCC-CCL-247), lung carcinoma (A549, ATCC- CCL-185), cervical cancer cells (HeLa, ATCC-CCL-2), neuroblastoma (SH-SY5Y, ATCC- CRL-2266), rhabdomyosarcoma (RD, ATCC- CCL-136) and human embryonic kidney cells (HEK 293, ATCC- CRL-1573). All the cells were maintained into Dulbecco’s Modified Eagle’s Medium (DMEM) supplemented with 10% heat-inactivated fetal bovine serum, 2 mM L-Glutamine, 100 U/ml penicillin–streptomycin (Pen/Strep) at 37 °C in 5% CO2 humidified incubator.
(§2) First, the cytotoxic effect of 24 h serum deprivation on all the selected cell lines was evaluated by MTT assay, following standard protocols. Briefly, cells were seeded and maintained at 37 °C and 5% CO2 in 24-well plates until they reached 75–80% confluency (zero time). Following washing twice with 1X PBS, cells were incubated in a serum-free medium for 24 h, under the same incubation conditions. The cell viability percentages were calculated and compared to zero time as 100% viability to nullify any possible effects of serum deprivation. Thence, the cell viability percentage of each cell line in response to 24 h treatment with different concentrations of each cryptide in serum-free medium was calculated. […] All the measured cell viability percentages were normalised against the corresponding negative controls.

[2] = system: E. coli K-1; assay: Radial diffusion assay; format: cell-based, Escherichia coli (ATCC, 11775); conditions: 5 µl of 500 µM per 3 mm well, 37 °C, mean ± SD
Source text: (§3) The microbial strains used in this study were Bacillus subtilis (ATCC, 11774), Candida albicans (TIMM, 1768), Enterococcus faecalis (ATCC, 33186), Escherichia coli (ATCC, 11775), Klebsiella pneumoniae (ATCC, 13883), Methicillin-resistant Staphylococcus aureus (ATCC, BAA-41), Pseudomonas aeruginosa (ATCC, 10145), Salmonella enterica (ATCC, 14028), Serratia marcescens (ATCC, 13880), Staphylococcus aureus (ATCC, 25923) and Vibrio parahaemolyticus (ATCC, 17802). All microbial strains were cultivated overnight at 37 °C and 200 rpm, then subcultured and incubated for 3 h under the same incubation conditions to obtain the mid-logarithmic growth phase. The cultivated cells were washed twice with 10 mM Tris–HCl containing 5 mM D-glucose at pH 7.4 and suspended in the same buffer to be used in different assays, as previously described.
(§4) The antimicrobial activity spectra of the selected cryptides were screened against all the mentioned microbial pathogens, except V. parahaemolyticus, by radial diffusion assay as previously described, with slight modifications. […] The plates were then incubated for 18 h, and the antimicrobial activities were measured in the absolute unit (AU), as previously described. […]
(§5) plate. The plates were then incubated for 12 h at 37 °C and antimicrobial activities were measured in the term of absolute unit (A.U). […]

[3] = system: MRSA; assay: Radial diffusion assay; format: cell-based, Methicillin-resistant Staphylococcus aureus (ATCC, BAA-41); conditions: 5 µl of 500 µM per 3 mm well, 37 °C, mean ± SD
Source text: as §3, §4, §5

[4] = system: S. aureus; assay: Radial diffusion assay; format: cell-based, Staphylococcus aureus (ATCC, 25923); conditions: 5 µl of 500 µM per 3 mm well, 37 °C, mean ± SD
Source text: as §3, §4, §5

[5] = system: S. enterica; assay: Radial diffusion assay; format: cell-based, Salmonella enterica (ATCC, 14028); conditions: 5 µl of 500 µM per 3 mm well, 37 °C, mean ± SD
Source text: as §3, §4, §5

[6] = system: S. marcescens; assay: Radial diffusion assay; format: cell-based, Serratia marcescens (ATCC, 13880); conditions: 5 µl of 500 µM per 3 mm well, 37 °C, mean ± SD
Source text: as §3, §4, §5

[7] = system: C. albicans; assay: Radial diffusion assay; format: cell-based, Candida albicans (TIMM, 1768); conditions: 5 µl of 500 µM per 3 mm well, 37 °C, mean ± SD
Source text: as §3, §4, §5

[8] = format: cell-based; conditions: 24 h, serum-free medium, MTT, 37 °C, 5% CO2; mean ± SD; read-out: IC50 (µM) A459
Procedure: as §1, §2

[9] = system: SH-SY5Y; format: cell-based; conditions: 24 h, serum-free medium, MTT, 37 °C, 5% CO2; mean ± SD
Procedure: as §1, §2

[10] = system: RD; format: cell-based; conditions: 24 h, serum-free medium, MTT, 37 °C, 5% CO2; mean ± SD
Procedure: as §1, §2

[11] = system: S. epidermidis; assay: Radial diffusion assay; format: cell-based; conditions: 5 µl of 500 µM per 3 mm well, 37 °C, mean ± SD
Source text: The antimicrobial activity spectra of the selected cryptides were screened against all the mentioned microbial pathogens, except V. parahaemolyticus, by radial diffusion assay as previously described, with slight modifications. We aimed to test different categories of pathogens on the WHO global priority due to their growing resistance to the available antibiotics such as P. aeruginosa, E. coli and K. pneumoniae in the critical category and Salmonella ssp. and S. aureus in the high category. Briefly, a total of 4 × 10^6 CFU of each pathogen was inoculated in 10 mL of an underlay agarose gel [0.03% w/v tryptone soy broth (TSB) medium, 1% w/v agarose and 0.02% v/v Tween 20 in 10 mM Tris–HCl] that was then poured into a 100-mm petri dish. After agarose solidification, 3 mm-diameter wells were punched by a sterile cork borer and 5 µl of 500 µM stock solution from each cryptide was added to each well. Melittin and acidified water were used as positive and negative controls, respectively. […] The plates were then incubated for 18 h, and the antimicrobial activities were measured in the absolute unit (AU), as previously described. […]
as §5

[12] = system: Caco-2; format: cell-based, human; conditions: 24 h, serum-free medium, MTT, 37 °C, 5% CO2; mean ± SD
Procedure: as §1, §2

[13] = system: HeLa; format: cell-based, human; conditions: 24 h, serum-free medium, MTT, 37 °C, 5% CO2; mean ± SD
Procedure: as §1, §2

[14] = system: HCT 116; format: cell-based, human; conditions: 24 h, serum-free medium, MTT, 37 °C, 5% CO2; mean ± SD
Procedure: as §1, §2

[15] = system: E. faecalis; assay: Radial diffusion assay; format: cell-based, Enterococcus faecalis (ATCC, 33186); conditions: 5 µl of 500 µM per 3 mm well, 37 °C, mean ± SD
Source text: as §3, §4, §5

[16] = system: P. aeruginosa; assay: Radial diffusion assay; format: cell-based, Pseudomonas aeruginosa (ATCC, 10145); conditions: 5 µl of 500 µM per 3 mm well, 37 °C, mean ± SD
Source text: as §3, §4, §5

[17] = system: B. subtilis; assay: Radial diffusion assay; format: cell-based, Bacillus subtilis (ATCC, 11774); conditions: 5 µl of 500 µM per 3 mm well, 37 °C, mean ± SD
Source text: as §3, §4, §5

[18] = system: K. pneumoniae; assay: Radial diffusion assay; format: cell-based, Klebsiella pneumoniae (ATCC, 13883); conditions: 5 µl of 500 µM per 3 mm well, 37 °C, mean ± SD
Source text: as §3, §4, §5

[19] = system: bacterial pathogens; conditions: salt tolerance; cited from earlier work
Procedure: For example, Pleurocidin is an AMP isolated from a marine flatfish Pseudopleuronectes americanus (Winter flounder) and has been reported to be active against bacterial pathogens at high NaCl concentrations, up to 625 mM[15]. This potential salt-insensi ...

Molecule | Cell death of HEK-293 [1] | Antimicrobial activity (inhibition zone) E. coli K-1 [2] | Antimicrobial activity (inhibition zone) MRSA [3] | Antimicrobial activity (inhibition zone) S. aureus [4] | Antimicrobial activity (inhibition zone) S. enterica [5] | Antimicrobial activity (inhibition zone) S. marcescens [6] | Antifungal activity (inhibition zone) C. albicans [7] | IC50 [8] | IC50 [9] | IC50 [10] | Antimicrobial activity (inhibition zone) S. epidermidis [11] | IC50 [12] | IC50 [13] | IC50 [14] | Antimicrobial activity (inhibition zone) E. faecalis [15] | Antimicrobial activity (inhibition zone) P. aeruginosa [16] | Antimicrobial activity (inhibition zone) B. subtilis [17] | Antimicrobial activity (inhibition zone) K. pneumoniae [18] | NaCl concentration up to which active against bacterial pathogens [19]
CC[C@H](C)[C@H](NC(=O)CN)C(=O)NCC(=O)N[C@@H](C)C(=O)N[C@H](C(=O)N[C@@H](CC(C)C)C(=O)N[C@@H](CCCCN)C(=O)N[C@H](C(=O)N[C@@H](CC(C)C)C(=O)N[C@H](C(=O)N[C@H](C(=O)NCC(=O)N[C@@H](CC(C)C)C(=O)N1CCC[C@H]1C(=O)N[C@@H](C)C(=O)N[C@@H](CC(C)C)C(=O)N[C@H](C(=O)N[C@@H](CO)C(=O)N[C@@H](Cc1c[nH]c2ccccc12)C(=O)N[C@H](C(=O)N[C@@H](CCCCN)C(=O)N[C@@H](CCCNC(=N)N)C(=O)N[C@@H](CCCCN)C(=O)N[C@@H](CCCNC(=N)N)C(=O)N[C@@H](CCC(N)=O)C(=O)N[C@@H](CCC(N)=O)C(N)=O)[C@@H](C)CC)[C@@H](C)CC)[C@@H](C)O)[C@@H](C)O)C(C)C)C(C)C [Melittin, reference compound] | 78.7% | 6.5 ± 0.9 A.U. | 11.8 ± 1.3 A.U. | 41.5 ± 2.5 A.U. | 7.8 ± 2 A.U. | 7.7 ± 1 A.U. | 14.2 ± 1.4 A.U. | 2.3 ± 0.6 µM | 1.7 ± 1 µM | 2.4 ± 0.5 µM | 10.4 ± 1.2 A.U. | 1.2 ± 0.9 µM | 0.9 ± 0.1 µM | 2.1 ± 0.2 µM | 11.8 ± 1.3 A.U. | 6 ± 0.9 A.U. | 21.8± 3.1 A.U. | 11.8 ± 1.3 A.U. | –
Pleurocidin (GWGSFFKKAAHVGKHVGKAALTHYL; UniProt P81941 23-47, looked up) [AMP isolated from a marine flatfish Pseudopleuronectes americanus (Winter flounder)] | – | – | – | – | – | – | – | – | – | – | – | – | – | – | – | – | – | – | up to 625 mM

Source: publication PMC10482825 (Scientific Reports, 2023)
